{
  "source": "patent US20240342150A1",
  "about": "(priority 2021, published 2024)",
  "key": {"[1]": {"test_system": "SARS-CoV-2 (Wuhan)", "assay": "microbe, parasite or virus in culture", "format": "cell-based", "conditions": "Severe acute respiratory syndrome coronavirus 2, Vero C1008"}, "[2]": {"test_system": "Vero E6 cells", "conditions": "for % viable cells: not infected Vero E6 cells"}},
  "note": "pIC50: −log10 of the molar value. Read-outs that look alike come from different tables or passages of the source.",
  "data": [
    {"smiles": "O=C(c1ccc(OCCN2CCCCC2)cc1)c1c(-c2ccc(O)cc2)sc2cc(O)ccc12", "note": "[Raloxifene, 1-[6-hydroxy-2-(4-hydroxyphenyl)benzo[b]thien-3-yl]-1-[4-[2-(1-piperidinyl)ethoxy]phenyl]methanone]", "values": [
      {"measurement": "pIC50", "setting": "[1]", "value": 5.23},
      {"measurement": "% viable cells", "setting": "[2]; Raloxifene 0.23 μM, 48 h", "value": 100, "unit": "%"},
      {"measurement": "% viable cells", "setting": "[2]; Raloxifene 0.23 μM, 72 h", "value": 102, "unit": "%"},
      {"measurement": "% viable cells", "setting": "[2]; Raloxifene 0.46 μM, 48 h", "value": 95, "unit": "%"},
      {"measurement": "% viable cells", "setting": "[2]; Raloxifene 0.46 μM, 72 h", "value": 95, "unit": "%"},
      {"measurement": "% viable cells", "setting": "[2]; Raloxifene 0.94 μM, 48 h", "value": 95, "unit": "%"},
      {"measurement": "% viable cells", "setting": "[2]; Raloxifene 0.94 μM, 72 h", "value": 96, "unit": "%"},
      {"measurement": "% viable cells", "setting": "[2]; Raloxifene 1.87 μM, 48 h", "value": 99, "unit": "%"},
      {"measurement": "% viable cells", "setting": "[2]; Raloxifene 1.87 μM, 72 h", "value": 97, "unit": "%"},
      {"measurement": "% viable cells", "setting": "[2]; Raloxifene 3.75 μM, 48 h", "value": 93, "unit": "%"},
      {"measurement": "% viable cells", "setting": "[2]; Raloxifene 3.75 μM, 72 h", "value": 96, "unit": "%"},
      {"measurement": "% viable cells", "setting": "[2]; Raloxifene 7.5 μM, 48 h", "value": 92, "unit": "%"},
      {"measurement": "% viable cells", "setting": "[2]; Raloxifene 7.5 μM, 72 h", "value": 97, "unit": "%"},
      {"measurement": "% viable cells", "setting": "[2]; Raloxifene 15 μM, 48 h", "value": 86, "unit": "%"},
      {"measurement": "% viable cells", "setting": "[2]; Raloxifene 15 μM, 72 h", "value": 76, "unit": "%"},
      {"measurement": "effect on cell viability", "setting": "[2]; Raloxifene 15 μM, crystal violet staining", "value": "reduced percentage of viable cells"},
      {"measurement": "effect on cell viability", "setting": "[2]; lower drug concentrations (7.5 to 0.23 μM)", "value": "No significant effect on cell viability"}
    ]}
  ]
}
